According to patent US6710049B2, “Azole compounds as anti-fungal agents” (Ranbaxy Laboratories Limited, priority 2000, dated 2004):
Values after ≈ are worked out from the molar mass of the structure shown.

Columns and labels:
Rhizopus (Ceylon) = test: MIC determination (NCCLS broth method); type: cell-based
Procedure, shortened: (§1)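 Broth microdilution per NCCLS M27A (yeasts) and M38P (Aspergillus), modified for dermatophytes and other filamentous fungi; RPMI 1640 buffered with MOPS to pH 7. MIC is the lowest concentration giving significant growth inhibition. Wells showing no growth are subcultured onto Sabouraud Dextrose Agar to give the MFC.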

Penicillium H - 1048 = test: MIC determination (NCCLS broth method); type: cell-based
Procedure, shortened: as §1

C krusei 6258 = test: MIC determination (NCCLS broth method); type: cell-based
Procedure, shortened: as §1

Fusarium 1827C = test: MIC determination (NCCLS broth method); type: cell-based
Procedure, shortened: as §1

Fusarium 2960C = test: MIC determination (NCCLS broth method); type: cell-based
Procedure, shortened: as §1

C tropicalis 750 = test: MIC determination (NCCLS broth method); type: cell-based
Procedure, shortened: as §1

A niger P1 - 1046 = test: MIC determination (NCCLS broth method); type: cell-based
Procedure, shortened: as §1

C krusei 766.1 = test: MIC determination (NCCLS broth method); type: cell-based
Procedure, shortened: as §1

Penicillium 3162 = test: MIC determination (NCCLS broth method); type: cell-based
Procedure, shortened: as §1

Penicillium I - 1049 = test: MIC determination (NCCLS broth method); type: cell-based
Procedure, shortened: as §1

Penicillium 2548 = test: MIC determination (NCCLS broth method); type: cell-based
Procedure, shortened: as §1

A flavus P2 - 1045 = test: MIC determination (NCCLS broth method); type: cell-based
Procedure, shortened: as §1

Rhizopus 1052 = test: MIC determination (NCCLS broth method); type: cell-based
Procedure, shortened: as §1

Fusarium 1050 = test: MIC determination (NCCLS broth method); type: cell-based
Procedure, shortened: as §1

A flavus E2 - 1043 = test: MIC determination (NCCLS broth method); type: cell-based
Procedure, shortened: as §1

C parapsilosis 22019 = test: MIC determination (NCCLS broth method); type: cell-based
Procedure, shortened: as §1

Penicillium 1641 = test: MIC determination (NCCLS broth method); type: cell-based
Procedure, shortened: as §1

A niger E5 - 1047 = test: MIC determination (NCCLS broth method); type: cell-based
Procedure, shortened: as §1

Penicillium 191 = test: MIC determination (NCCLS broth method); type: cell-based
Procedure, shortened: as §1

A flavus E4 - 1042 = test: MIC determination (NCCLS broth method); type: cell-based
Procedure, shortened: as §1

Alternaria 1051 = test: MIC determination (NCCLS broth method); type: cell-based
Procedure, shortened: as §1

C albicans Y01.19 = test: MIC determination (NCCLS broth method); type: cell-based, Candida albicans
From the text: (§2) The in-vitro evaluation of the antifungal activity of the compounds can be performed by determining the minimum inhibitory concentration (MIC) as shown in Table 1 which is the concentration of the test compound in Rosewell Park Memorial Institute (RPMI) 1640 liquid medium buffered with 3-(Morpholino)propanesulphonic acid (MOPS) to pH 7, at which there is significant inhibition of the particular fungi. In practice the National Committee for Clinical Laboratory Standard (NCCLS) M27A document for Candida and Cryptococcus and M38P for Aspergillus was used to determine the MIC against yeast and filamentous fungi with suitable modifications for dermatophytes to other filamentous fungi. Three quality control strains were included each time the MIC were determined and readings recorded only when the Quality Control results fell into the acceptable range. After MIC results had been recorded, 100 μl from each of the well showing no growth was spread over Sabouraud Dextrose Agar (SDA) to determine the minimum fungicidal concentration (MFC) as shown in Table 2.

C albicans A-26 = test: MIC determination (NCCLS broth method); type: cell-based, Candida albicans; conditions: Candida albicans, A26, read-out: Minimum Inhibitory Concentration (MIC)
From the text: as §2

T. mentagrophyte = test: Activity against dermatophytes; type: cell-based; design: unit not given here
From the text: as §2
(§3) A comparative in vitro and in vivo biologically activity data of the compound of our invention, 2-{[1R,2R]-2-(2,4-Difluorophenyl)-2-hydroxy-1-methyl-3-(1H-1,2,4-triazole-1-yl)propyl}-4-[(2′,2′,3′,3′-tetrafluoropropoxyphenyl)-3-(2H,4H)-1,2,4-thiotriazolone (Compound No. 3) with 2-[(1R,2R)-2-(2,4-difluorophenyl)-2-hydroxy-1-methyl-3-(1H-1,2,4-triazol-1-yl)propyl]-4-(2′,2′,3′,3′-tetraflouropropoxyphenyl)-3(2H,4H)-1,2,4-triazolone (TAK 187) and standard antifungal pharmaceuticals is given below: […]

T. rubrum = test: Activity against dermatophytes; type: cell-based; design: unit not given here
From the text: as §2, §3

Penicilliuim 2306 = test: MIC determination (NCCLS broth method); type: cell-based, Penicillium
From the text: as §2

A fumigatus II - 1012 = test: MIC determination (NCCLS broth method); type: cell-based, Aspergillus fumigatus
From the text: as §2

A fumigatus 1008 = test: MIC determination (NCCLS broth method); type: cell-based, Aspergillus fumigatus
From the text: as §2

A fumigatus SI-1 - 1019 = test: MIC determination (NCCLS broth method); type: cell-based, Aspergillus fumigatus
From the text: as §2

A fumigatus PGI - 1023 = test: MIC determination (NCCLS broth method); type: cell-based, Aspergillus fumigatus
From the text: as §2

A fumigatus L - 1034 = test: MIC determination (NCCLS broth method); type: cell-based, Aspergillus fumigatus
From the text: as §2

A fumigatus J - 1032 = test: MIC determination (NCCLS broth method); type: cell-based, Aspergillus fumigatus
From the text: as §2

A fumigatus K - 1033 = test: MIC determination (NCCLS broth method); type: cell-based, Aspergillus fumigatus
From the text: as §2

A fumigatus I - 1011 = test: MIC determination (NCCLS broth method); type: cell-based, Aspergillus fumigatus
From the text: as §2

H capsulatum = test: MIC determination (NCCLS broth method); type: cell-based
Procedure, shortened: as §1

[1] = read-out: Minimum Inhibitory Concentration (MIC)

CCC(C)n1ncn(-c2ccc(N3CCN(c4ccc(OCC5COC(Cn6cncn6)(c6ccc(Cl)cc6Cl)O5)cc4)CC3)cc2)c1=O (stereo not drawn) [Itraconazole]
MIC (Rhizopus (Ceylon); [1]): 64 µg/mL (≈ 90.7 µM)
MIC (Penicillium H - 1048; H1048, read-out: Minimum Inhibitory Concentration (MIC)): 16 µg/mL (≈ 22.7 µM)
MIC (C krusei 6258; [1]): 0.25 µg/mL (≈ 0.354 µM)
MIC (Fusarium 1827C; [1]): 128 µg/mL (≈ 181 µM)
MIC (Fusarium 2960C; [1]): 16 µg/mL (≈ 22.7 µM)
MIC (C tropicalis 750; [1]): 0.016 µg/mL (≈ 0.0227 µM)
MIC (A niger P1 - 1046; [1]): 0.125 µg/mL (≈ 0.177 µM)
MIC (C krusei 766.1; [1]): 0.5 µg/mL (≈ 0.709 µM)
MIC (Penicillium 3162; [1]): 0.25 µg/mL (≈ 0.354 µM)
MIC (Penicillium I - 1049; I1049, read-out: Minimum Inhibitory Concentration (MIC)): 16 µg/mL (≈ 22.7 µM)
MIC (Penicillium 2548; [1]): 0.25 µg/mL (≈ 0.354 µM)
MIC (A flavus P2 - 1045; [1]): 0.06 µg/mL (≈ 0.085 µM)
MIC (Rhizopus 1052; [1]): 16 µg/mL (≈ 22.7 µM)
MIC (Fusarium 1050; [1]): 64 µg/mL (≈ 90.7 µM)
MIC (A flavus E2 - 1043; [1]): 0.03 µg/mL (≈ 0.0425 µM)
MIC (C parapsilosis 22019; [1]): 0.03 µg/mL (≈ 0.0425 µM)
MIC (Penicillium 1641; [1]): 0.25 µg/mL (≈ 0.354 µM)
MIC (A niger E5 - 1047; [1]): 0.03 µg/mL (≈ 0.0425 µM)
MIC (Penicillium 191; [1]): 0.06 µg/mL (≈ 0.085 µM)
MIC (A flavus E4 - 1042; [1]): 0.06 µg/mL (≈ 0.085 µM)
MIC (Alternaria 1051; [1]): 0.125 µg/mL (≈ 0.177 µM)
MIC (C albicans Y01.19; Candida albicans, read-out: Minimum Inhibitory Concentration (MIC)): 0.25 µg/mL (≈ 0.354 µM)
MIC (C albicans A-26): 0.016 µg/mL (≈ 0.0227 µM)
Activity against dermatophytes (T. mentagrophyte): 0.125
Activity against dermatophytes (T. rubrum): 0.03
MIC (Penicilliuim 2306; Penicillium, read-out: Minimum Inhibitory Concentration (MIC)): 0.125 µg/mL (≈ 0.177 µM)
MIC (A fumigatus II - 1012; Aspergillus fumigatus, II1012, read-out: Minimum Inhibitory Concentration (MIC)): 0.06 µg/mL (≈ 0.085 µM)
MIC (A fumigatus 1008; Aspergillus fumigatus, read-out: Minimum Inhibitory Concentration (MIC)): 0.06 µg/mL (≈ 0.085 µM)
MIC (A fumigatus SI-1 - 1019; Aspergillus fumigatus, SI11019, read-out: Minimum Inhibitory Concentration (MIC)): 0.03 µg/mL (≈ 0.0425 µM)
MIC (A fumigatus PGI - 1023; Aspergillus fumigatus, PGI1023, read-out: Minimum Inhibitory Concentration (MIC)): 0.03 µg/mL (≈ 0.0425 µM)
MIC (A fumigatus L - 1034; Aspergillus fumigatus, L1034, read-out: Minimum Inhibitory Concentration (MIC)): 0.06 µg/mL (≈ 0.085 µM)
MIC (A fumigatus J - 1032; Aspergillus fumigatus, J1032, read-out: Minimum Inhibitory Concentration (MIC)): 0.03 µg/mL (≈ 0.0425 µM)
MIC (A fumigatus K - 1033; Aspergillus fumigatus, K1033, read-out: Minimum Inhibitory Concentration (MIC)): 0.06 µg/mL (≈ 0.085 µM)
MIC (A fumigatus I - 1011; Aspergillus fumigatus, I1011, read-out: Minimum Inhibitory Concentration (MIC)): 0.06 µg/mL (≈ 0.085 µM)

C[C@@H](n1ncn(-c2ccc(OCC(F)(F)C(F)F)cc2)c1=O)[C@](O)(Cn1cncn1)c1ccc(F)cc1F [TAK 187, 2-[(1R,2R)-2-(2,4-difluorophenyl)-2-hydroxy-1-methyl-3-(1H-1,2,4-triazol-1-yl)propyl]-4-(2′,2′,3′,3′-tetraflouropropoxyphenyl)-3(2H,4H)-1,2,4-triazolone]
Minimum Inhibitory Concentration (MIC) (Rhizopus (Ceylon)): 2 µg/mL
Minimum Inhibitory Concentration (MIC) (Penicillium H - 1048): 16 µg/mL
Minimum Inhibitory Concentration (MIC) (C krusei 6258): 2 µg/mL
Minimum Inhibitory Concentration (MIC) (Fusarium 1827C): 32 µg/mL
Minimum Inhibitory Concentration (MIC) (Fusarium 2960C): 32 µg/mL
Minimum Inhibitory Concentration (MIC) (C tropicalis 750): 0.125 µg/mL
Minimum Inhibitory Concentration (MIC) (A niger P1 - 1046): 0.5 µg/mL
Minimum Inhibitory Concentration (MIC) (C krusei 766.1): 2 µg/mL
Minimum Inhibitory Concentration (MIC) (Penicillium 3162): 32 µg/mL
Minimum Inhibitory Concentration (MIC) (Penicillium I - 1049): 16 µg/mL
Minimum Inhibitory Concentration (MIC) (H capsulatum): 0.25 µg/mL
Minimum Inhibitory Concentration (MIC) (Penicillium 2548): 16 µg/mL
Minimum Inhibitory Concentration (MIC) (A flavus P2 - 1045): 4 µg/mL
Minimum Inhibitory Concentration (MIC) (Rhizopus 1052): 8 µg/mL
Minimum Inhibitory Concentration (MIC) (Fusarium 1050): 64 µg/mL
Minimum Inhibitory Concentration (MIC) (A flavus E2 - 1043): 4 µg/mL
Minimum Inhibitory Concentration (MIC) (C parapsilosis 22019): 0.03 µg/mL
Minimum Inhibitory Concentration (MIC) (Penicillium 1641): 16 µg/mL
Minimum Inhibitory Concentration (MIC) (A niger E5 - 1047): 2 µg/mL
Minimum Inhibitory Concentration (MIC) (Penicillium 191): 16 µg/mL
Minimum Inhibitory Concentration (MIC) (A flavus E4 - 1042): 4 µg/mL
Minimum Inhibitory Concentration (MIC) (Alternaria 1051): 1 µg/mL
Minimum Inhibitory Concentration (MIC) (C albicans Y01.19): 2 µg/mL
Minimum Inhibitory Concentration (MIC) (Penicilliuim 2306): 8 µg/mL
Minimum Inhibitory Concentration (MIC) (A fumigatus II - 1012): 8 µg/mL
Minimum Inhibitory Concentration (MIC) (A fumigatus 1008): 4 µg/mL
Minimum Inhibitory Concentration (MIC) (A fumigatus SI-1 - 1019): 2 µg/mL
Minimum Inhibitory Concentration (MIC) (A fumigatus PGI - 1023): 8 µg/mL
Minimum Inhibitory Concentration (MIC) (A fumigatus L - 1034): 4 µg/mL
Minimum Inhibitory Concentration (MIC) (A fumigatus J - 1032): 4 µg/mL
Minimum Inhibitory Concentration (MIC) (A fumigatus K - 1033): 8 µg/mL
Minimum Inhibitory Concentration (MIC) (A fumigatus I - 1011): 4 µg/mL
